{"source": "paper PMC11181338", "about": "(Journal of Medicinal Chemistry, 2024)", "key": {"[1]": {"system": "KCNT1 versus KCNT2 channels", "conditions": "cited from earlier work"}, "human KCNT2": {"target": "T1, human KCNT2 (Homo sapiens, UniProt Q6UVM3)", "T1 sequence (Q6UVM3 1-1135)": "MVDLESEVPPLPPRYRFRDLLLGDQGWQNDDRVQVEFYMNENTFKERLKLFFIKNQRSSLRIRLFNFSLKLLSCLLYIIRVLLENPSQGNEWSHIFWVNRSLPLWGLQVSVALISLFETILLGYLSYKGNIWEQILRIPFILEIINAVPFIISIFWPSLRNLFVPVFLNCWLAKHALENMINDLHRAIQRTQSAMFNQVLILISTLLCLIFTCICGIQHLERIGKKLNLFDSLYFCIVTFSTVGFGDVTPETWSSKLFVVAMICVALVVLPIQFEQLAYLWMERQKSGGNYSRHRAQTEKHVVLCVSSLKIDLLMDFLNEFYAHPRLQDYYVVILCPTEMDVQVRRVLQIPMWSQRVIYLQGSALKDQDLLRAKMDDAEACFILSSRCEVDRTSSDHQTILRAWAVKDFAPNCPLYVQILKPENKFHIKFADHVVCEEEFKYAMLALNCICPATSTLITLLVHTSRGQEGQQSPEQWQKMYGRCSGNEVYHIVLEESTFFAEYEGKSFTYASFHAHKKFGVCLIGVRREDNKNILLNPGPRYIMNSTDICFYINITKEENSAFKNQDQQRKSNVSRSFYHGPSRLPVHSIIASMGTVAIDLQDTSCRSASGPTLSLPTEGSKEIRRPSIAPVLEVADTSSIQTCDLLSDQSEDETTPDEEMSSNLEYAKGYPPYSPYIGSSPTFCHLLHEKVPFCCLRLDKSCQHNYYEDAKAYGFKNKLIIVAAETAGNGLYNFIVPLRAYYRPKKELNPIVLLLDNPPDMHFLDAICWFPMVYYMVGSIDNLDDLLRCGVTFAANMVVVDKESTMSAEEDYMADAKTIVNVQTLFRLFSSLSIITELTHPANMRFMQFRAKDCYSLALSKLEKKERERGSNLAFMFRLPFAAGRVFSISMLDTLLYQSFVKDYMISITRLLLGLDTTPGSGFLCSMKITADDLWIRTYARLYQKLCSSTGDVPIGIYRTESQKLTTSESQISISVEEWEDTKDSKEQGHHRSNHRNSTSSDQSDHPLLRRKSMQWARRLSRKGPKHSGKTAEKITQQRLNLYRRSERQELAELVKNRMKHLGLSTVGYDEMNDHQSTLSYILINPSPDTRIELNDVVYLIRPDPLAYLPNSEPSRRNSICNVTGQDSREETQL", "test": "Whole-cell patch-clamp, HEK cells expressing KCNT2", "format": "cell-based", "conditions": "KCNT2 currents"}, "Human plasma stability": {"test": "Human plasma stability", "format": "in vitro ADME"}, "Plasma protein binding": {"test": "Plasma protein binding", "format": "in vitro ADME", "conditions": "10 μM, 4 h, 37 °C"}, "[2]": {"test": "In vitro drug metabolism using human liver microsomes", "conditions": "HLM"}, "hERG": {"target": "hERG (Homo sapiens, UniProt Q12809)", "sequence (Q12809 whole entry)": "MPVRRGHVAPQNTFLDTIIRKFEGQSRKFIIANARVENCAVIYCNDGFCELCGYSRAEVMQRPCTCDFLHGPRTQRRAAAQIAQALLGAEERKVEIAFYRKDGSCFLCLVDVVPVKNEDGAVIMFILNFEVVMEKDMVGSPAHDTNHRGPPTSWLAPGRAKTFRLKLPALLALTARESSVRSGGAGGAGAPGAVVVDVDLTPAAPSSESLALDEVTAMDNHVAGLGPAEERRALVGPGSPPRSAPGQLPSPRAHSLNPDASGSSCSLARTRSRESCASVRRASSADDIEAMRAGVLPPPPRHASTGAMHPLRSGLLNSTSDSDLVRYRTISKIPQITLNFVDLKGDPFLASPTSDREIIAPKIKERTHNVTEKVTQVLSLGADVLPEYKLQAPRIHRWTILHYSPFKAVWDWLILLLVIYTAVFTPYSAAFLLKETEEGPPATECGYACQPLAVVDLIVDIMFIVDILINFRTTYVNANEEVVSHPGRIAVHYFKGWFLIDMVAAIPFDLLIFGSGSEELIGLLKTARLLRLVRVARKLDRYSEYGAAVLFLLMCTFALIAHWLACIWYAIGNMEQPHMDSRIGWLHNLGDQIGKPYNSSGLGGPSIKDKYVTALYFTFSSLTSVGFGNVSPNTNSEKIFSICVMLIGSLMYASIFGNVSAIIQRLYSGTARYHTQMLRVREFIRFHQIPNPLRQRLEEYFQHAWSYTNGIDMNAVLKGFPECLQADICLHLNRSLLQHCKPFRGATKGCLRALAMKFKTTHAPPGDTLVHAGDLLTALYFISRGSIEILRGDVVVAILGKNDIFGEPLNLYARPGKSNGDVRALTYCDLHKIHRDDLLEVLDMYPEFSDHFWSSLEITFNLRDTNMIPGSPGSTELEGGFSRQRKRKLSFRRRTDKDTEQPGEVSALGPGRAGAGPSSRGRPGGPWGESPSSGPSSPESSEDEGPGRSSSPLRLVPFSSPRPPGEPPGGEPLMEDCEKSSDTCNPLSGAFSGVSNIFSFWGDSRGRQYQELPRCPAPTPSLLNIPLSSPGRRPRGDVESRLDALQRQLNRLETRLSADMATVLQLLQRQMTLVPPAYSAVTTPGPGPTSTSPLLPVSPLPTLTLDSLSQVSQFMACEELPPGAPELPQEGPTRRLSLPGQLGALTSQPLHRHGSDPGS", "test": "Whole-cell patch-clamp, CHO cells transiently transfected with hERG", "conditions": "for hERG-blocking activity: 10 μM; for inhibition at 10 µM: human, pH 7.4, % of hERG inhibition, tail currents at −100 mV"}, "human KCNT1 [3]": {"target": "T2, human KCNT1 (Homo sapiens, UniProt Q5JUK3)", "T2 sequence (Q5JUK3 1-1256 isoform Q5JUK3-2)": "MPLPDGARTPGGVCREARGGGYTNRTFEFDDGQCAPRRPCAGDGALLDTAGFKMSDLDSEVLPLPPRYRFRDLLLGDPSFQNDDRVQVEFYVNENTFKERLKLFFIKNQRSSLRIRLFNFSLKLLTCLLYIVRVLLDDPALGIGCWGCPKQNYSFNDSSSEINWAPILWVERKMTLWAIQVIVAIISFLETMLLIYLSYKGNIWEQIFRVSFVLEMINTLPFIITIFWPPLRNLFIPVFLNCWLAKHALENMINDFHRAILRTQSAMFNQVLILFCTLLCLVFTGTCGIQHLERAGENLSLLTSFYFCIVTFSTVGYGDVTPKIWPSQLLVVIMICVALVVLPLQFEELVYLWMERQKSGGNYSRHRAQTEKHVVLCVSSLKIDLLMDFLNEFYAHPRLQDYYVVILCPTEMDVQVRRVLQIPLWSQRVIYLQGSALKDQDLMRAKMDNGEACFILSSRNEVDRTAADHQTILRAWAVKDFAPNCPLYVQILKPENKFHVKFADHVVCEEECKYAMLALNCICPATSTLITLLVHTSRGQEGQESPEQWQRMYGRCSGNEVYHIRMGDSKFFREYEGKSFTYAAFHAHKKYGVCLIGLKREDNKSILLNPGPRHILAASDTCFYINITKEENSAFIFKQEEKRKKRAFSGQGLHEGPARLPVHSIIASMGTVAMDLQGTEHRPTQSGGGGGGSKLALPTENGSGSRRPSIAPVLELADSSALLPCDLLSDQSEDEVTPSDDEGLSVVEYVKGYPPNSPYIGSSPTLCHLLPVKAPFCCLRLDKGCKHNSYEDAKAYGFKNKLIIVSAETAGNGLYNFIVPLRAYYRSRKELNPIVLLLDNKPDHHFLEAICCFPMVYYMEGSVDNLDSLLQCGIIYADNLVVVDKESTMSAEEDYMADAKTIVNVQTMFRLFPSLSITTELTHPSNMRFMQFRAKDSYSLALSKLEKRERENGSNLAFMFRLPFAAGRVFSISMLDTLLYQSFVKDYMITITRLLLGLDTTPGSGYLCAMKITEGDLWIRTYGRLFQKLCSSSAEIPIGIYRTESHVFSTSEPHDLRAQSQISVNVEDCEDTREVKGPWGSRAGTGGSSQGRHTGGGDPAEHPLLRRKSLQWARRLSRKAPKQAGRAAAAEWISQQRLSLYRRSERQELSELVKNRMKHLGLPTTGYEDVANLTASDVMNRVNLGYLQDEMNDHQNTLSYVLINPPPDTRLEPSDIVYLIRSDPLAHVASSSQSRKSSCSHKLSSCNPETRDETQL", "test": "Whole-cell patch-clamp, CHO cells transiently transfected with hKCNT1", "format": "cell-based", "conditions": "10 μM"}, "hERG channels": {"system": "hERG channels", "conditions": "cited from earlier work; for % of hERG current blocked: 10 μM"}, "KCNT2": {"system": "KCNT2", "conditions": "up to 10 μM, Tl+ flux assay; cited from earlier work"}, "human KCNT1 [4]": {"target": "T2, human KCNT1", "test": "FluxOR thallium", "format": "cell-based"}, "untransfected CHO cells": {"system": "untransfected CHO cells", "test": "FluxOR Tl+ fluorescence assay in untransfected CHO cells", "format": "cell-based, Chinese Hamster", "conditions": "10 μM"}, "KCNT1": {"system": "KCNT1", "conditions": "read-out: KCNT1 IC50; cited from earlier work"}}, "data": [{"smiles": "CCCCCCC[N+](CC)(CC)CCCCc1ccc(Cl)cc1", "note": "[clofilium]", "values": [{"measurement": "inhibitory potency KCNT1 versus KCNT2", "setting": "[1]", "result": "stronger inhibitory potency for KCNT1 versus KCNT2 channels"}]}, {"smiles": "O=S(=O)(Nc1ccc2c(c1)CCN2Cc1ccc(C(F)(F)F)cc1C(F)(F)F)C1CCCCC1", "note": "[CPK20, N-{1-[2,4-Bis(trifluoromethyl)benzyl]indolin-5-yl}cyclohexanesulfonamide]", "values": [{"measurement": "Hill slope (k values)", "setting": "human KCNT2", "result": "−0.57 ± 0.09", "unit": "mV/efold"}, {"measurement": "recovery at 120 min", "setting": "Human plasma stability", "result": "≥ 80", "unit": "%"}, {"measurement": "binding to plasma proteins", "setting": "Plasma protein binding", "result": 99, "unit": "%"}, {"measurement": "clearance category", "setting": "[2]", "result": "low clearance"}, {"measurement": "CLint in vitro", "setting": "[2]; NADPH + UDPGA", "result": "< 1", "unit": "mL min^–1 kg^–1"}, {"measurement": "hERG-blocking activity", "setting": "hERG", "result": "devoid of hERG-blocking activity"}]}, {"smiles": "Oc1ccc2ccccc2c1CNCCc1c[nH]c2ccccc12", "note": "[CPK13, 1-{[(2-(1H-Indol-3-yl)ethyl]amino)methyl}naphthalen-2-ol]", "values": [{"measurement": "blocking time constant (τon)", "setting": "human KCNT1 [3]", "result": "17.7 ± 2.3", "unit": "s"}, {"measurement": "inhibition at 10 µM", "setting": "hERG", "result": "30 to 40", "unit": "%"}]}, {"smiles": "O=C(Nc1cccc(C(F)(F)F)c1)c1ccc2nc(N3C(=O)c4ccccc4C3=O)sc2c1", "note": "[BC12]", "values": [{"measurement": "% of hERG current blocked", "setting": "hERG channels", "result": "15–20%"}]}, {"smiles": "COc1ccc(Cl)cc1NC(=O)CN1CCN(S(=O)(=O)N2CCC(C)CC2)CC1", "note": "[VU0606170]", "values": [{"measurement": "KCNT2 blocking effect", "setting": "KCNT2", "result": "no KCNT2 blocking effect"}]}, {"smiles": "Cc1cc(O)ccc1N/C=C/C(=O)c1ccccc1", "note": "[BC13]", "values": [{"measurement": "% of hERG current blocked", "setting": "hERG channels", "result": "15–20%"}]}, {"smiles": "CN1CCN(C2=Nc3ccccc3Oc3ccc(Cl)cc32)CC1", "note": "[LOX, loxapine]", "values": [{"measurement": "EC50", "setting": "human KCNT1 [4]", "result": "4 ± 1.7", "unit": "µM"}, {"measurement": "slope of the Tl+ fluorescence curve", "setting": "human KCNT1 [4]; 10 μM, 15 min preincubation, KCNT1 stably transfected CHO cells", "result": "0.041 ± 0.006"}, {"measurement": "slope of the Tl+ fluorescence curve", "setting": "untransfected CHO cells", "result": "0.0007 ± 0.0006"}]}, {"smiles": "CC(C)(C)CNC(=O)Nc1ccc2c(c1)CCN2Cc1ccc(F)cc1", "note": "[CPK4, 1-[1-(4-Fluorobenzyl)indolin-5-yl]-3-neopentylurea]", "values": [{"measurement": "effect on the fluorescent signal", "setting": "human KCNT1 [4]; 10 μM, followed by LOX 10 μM", "result": "markedly reduced the fluorescent signal"}, {"measurement": "blocking time constant (τon)", "setting": "human KCNT1 [3]", "result": "49.0 ± 9.6", "unit": "s"}, {"measurement": "inhibition at 10 µM", "setting": "hERG", "result": "30 to 40", "unit": "%"}]}, {"smiles": "C=C[C@H]1C[N@@]2CC[C@H]1C[C@@H]2[C@@H](O)c1ccnc2ccc(OC)cc12", "note": "[QND, quinidine]", "values": [{"measurement": "IC50", "setting": "KCNT1", "result": "80 to 100", "unit": "µM"}, {"measurement": "IC50", "setting": "hERG channels; read-out: hERG IC50, heterologously expressed hERG channels", "result": "[…]"}]}, {"smiles": "CCOC(=O)[C@@H]1CS[C@@]2(C(=O)Nc3ccc(Br)cc32)N1C(=O)c1ccc(Cl)cc1", "note": "[CPK16, (2′S,4′R)-Ethyl 5-bromo-3′-(4-chlorobenzoyl)-2-oxospiro[indoline-3,2′-thiazolidine]-4′-carboxylate]", "values": [{"measurement": "hERG-blocking activity", "setting": "hERG", "result": "devoid of hERG-blocking activity"}]}, {"smiles": "O=C(NCc1ccccc1)[C@H](Cc1c[nH]c2ccccc12)NCc1ccc(Oc2ccccc2)cc1", "note": "[CPK18, (S)-N-Benzyl-3-(1H-indol-3-yl)-2-[(4-phenoxybenzyl)amino]propanamide]", "values": [{"measurement": "recovery at 120 min", "setting": "Human plasma stability", "result": "≥ 80", "unit": "%"}, {"measurement": "binding to plasma proteins", "setting": "Plasma protein binding", "result": 99, "unit": "%"}, {"measurement": "clearance category", "setting": "[2]", "result": "high"}, {"measurement": "CLint in vivo", "setting": "[2]; NADPH + UDPGA, scaled with human PBSF", "result": "< 80", "unit": "mL min^–1 kg^–1"}, {"measurement": "hERG-blocking activity", "setting": "hERG", "result": "devoid of hERG-blocking activity"}]}]}
